Source: PubChem BioAssay AID588639 (Sanford-Burnham Center for Chemical Genomics, 2011)
Values joined by “and” are separate entries in the source; they are usually repeats but may differ in a detail not shown here. Identical values can stand only once. Active and inactive are the calls of the source. The rule behind the calls is not given here.

Biological target: Alkaline phosphatase, tissue-nonspecific isozyme (Homo sapiens) (UniProt P05186)
Assay: inhibition of tissue-nonspecific alkaline phosphatase – biochemical, set 2, selectivity assay for mouse IAP inhibitor project, SAR follow-up (AID 588639)
Conditions: purified human TNAP enzyme activity, counter-screen for mouse IAP

Sequence of Alkaline phosphatase, tissue-nonspecific isozyme (Homo sapiens) (P05186 whole entry, looked up): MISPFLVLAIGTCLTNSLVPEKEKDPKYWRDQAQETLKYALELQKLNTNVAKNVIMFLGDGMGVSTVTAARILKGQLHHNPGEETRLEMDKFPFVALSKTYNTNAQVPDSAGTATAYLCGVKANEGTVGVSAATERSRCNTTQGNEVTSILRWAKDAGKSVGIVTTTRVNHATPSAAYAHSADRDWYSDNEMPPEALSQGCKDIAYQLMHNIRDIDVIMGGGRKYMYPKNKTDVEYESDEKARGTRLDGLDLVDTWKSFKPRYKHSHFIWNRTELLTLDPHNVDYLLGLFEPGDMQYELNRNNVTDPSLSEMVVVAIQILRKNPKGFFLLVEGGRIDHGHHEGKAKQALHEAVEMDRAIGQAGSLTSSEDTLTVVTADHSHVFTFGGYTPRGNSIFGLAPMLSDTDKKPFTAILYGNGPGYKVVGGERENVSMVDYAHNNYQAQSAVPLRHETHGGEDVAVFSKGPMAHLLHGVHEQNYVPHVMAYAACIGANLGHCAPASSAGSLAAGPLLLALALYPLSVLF

| Structure (SMILES) | IC50 |
| --- | --- |
| O=C(CCNS(=O)(=O)c1ccc2[nH]c(=O)oc2c1)NCc1cccc(F)c1 | > 100 µM (inactive) |
| COc1ccc(CNS(=O)(=O)c2ccc3[nH]c(=O)oc3c2)c(OC)c1 | > 100 µM (inactive) |
| Cc1ccc(C)c(CNC(=O)C2CCCN(S(=O)(=O)c3ccc4[nH]c(=O)oc4c3)C2)c1 (stereo not given) | > 100 µM (inactive) |
| COc1ccc(CCNC(=O)CCCNS(=O)(=O)c2ccc3[nH]c(=O)oc3c2)cc1 | > 100 µM (inactive) |
| COc1ccc(/C=N\NC(=O)c2cc(O)c(O)c(O)c2)cc1CN1CCN(c2ccc(F)cc2)CC1 | > 100 µM (inactive) |
| Cc1ccc(C)c(NC(=O)CNS(=O)(=O)c2ccc3[nH]c(=O)oc3c2)c1 | > 100 µM (inactive) and 34.8 µM |
| O=C(CCNS(=O)(=O)c1ccc2[nH]c(=O)oc2c1)NCc1cccc(Cl)c1 | > 100 µM (inactive) |
| O=C(CCNS(=O)(=O)c1ccc2[nH]c(=O)oc2c1)NCc1ccc2c(c1)OCO2 | > 100 µM (inactive) |
| COc1ccc(NC(=O)CCNS(=O)(=O)c2ccc3[nH]c(=O)oc3c2)cc1OC | 74.4 µM and 65.5 µM |
| O=C(N/N=C/c1cc(Br)ccc1F)c1ccc(O)cc1 | > 100 µM (inactive) |
| O=C(N/N=C/c1ccc(Cl)c(Cl)c1)c1cc(O)c(O)c(O)c1 | > 100 µM (inactive) |
| CC(C)Oc1ccc(CNC(=O)C2CCCN(S(=O)(=O)c3ccc4[nH]c(=O)oc4c3)C2)cc1 (stereo not given) | > 100 µM (inactive) |
| COc1cccc(CNS(=O)(=O)c2ccc3[nH]c(=O)oc3c2)c1 | > 100 µM (inactive) |
| O=C(CCCNS(=O)(=O)c1ccc2[nH]c(=O)oc2c1)NCc1cccc(F)c1 | 51.4 µM and > 100 µM (inactive) |
| COc1ccc(CNS(=O)(=O)c2ccc3[nH]c(=O)oc3c2)cc1 | > 100 µM (inactive) |
| COc1ccc(CNC(=O)CCCNS(=O)(=O)c2ccc3[nH]c(=O)oc3c2)cc1OC | > 100 µM (inactive) |
| O=C(CCNS(=O)(=O)c1ccc2c(c1)CCC2)NCCc1ccc2c(c1)OCO2 | > 100 µM (inactive) |
| N#Cc1ccc(NS(=O)(=O)c2ccc3[nH]c(=O)oc3c2)cc1 | > 100 µM (inactive) |
| CCc1ccc(NC(=O)C2CCCN(S(=O)(=O)c3ccc4c(c3)oc(=O)n4C)C2)cc1 (stereo not given) | > 100 µM (inactive) |
| CSc1cccc(NC(=O)CCNS(=O)(=O)c2ccc3c(c2)oc(=O)n3C)c1 | > 100 µM (inactive) |
| CCc1ccc(NC(=O)CCNS(=O)(=O)c2ccc3c(c2)oc(=O)n3C)cc1 | > 100 µM (inactive) |
| COc1cc(C(=O)N/N=C/c2c(F)cccc2Cl)cc(OC)c1OC | > 100 µM (inactive) |

| Structure (SMILES) | IC50 |
| --- | --- |
| Cc1ccc(NC(=O)CCNS(=O)(=O)c2ccc3[nH]c(=O)oc3c2)cc1C | > 100 µM (inactive) |
| Cc1ccc(C)c(NS(=O)(=O)c2ccc3[nH]c(=O)oc3c2)c1 | > 100 µM (inactive) |
| N#Cc1ccc(NC(=O)CNS(=O)(=O)c2ccc3[nH]c(=O)oc3c2)cc1 | > 100 µM (inactive) and 81.4 µM |
| COc1ccc(NC(=O)CCCNS(=O)(=O)c2ccc3[nH]c(=O)oc3c2)c(OC)c1 | > 100 µM (inactive) |
| COc1cc(/C=N/NC(=O)c2cc(O)c(O)c(O)c2)ccc1O | > 100 µM (inactive) |
| COc1ccc(C(=O)N/N=C/c2ccccc2F)cc1 | > 100 µM (inactive) |
| O=C(CCCNS(=O)(=O)c1ccc2[nH]c(=O)oc2c1)NCc1ccc2c(c1)OCO2 | > 100 µM (inactive) |
| O=C(CCS(=O)(=O)Nc1ccc2[nH]c(=O)oc2c1)NCc1cccc(Cl)c1 | > 100 µM (inactive) |
| O=C(N/N=C/c1c(F)cccc1Cl)c1ccc(O)cc1O | > 100 µM (inactive) |
| COc1ccc(NC(=O)CCNS(=O)(=O)c2ccc3ccccc3c2)cc1OC | > 100 µM (inactive) |
| O=C(CCS(=O)(=O)Nc1ccc2[nH]c(=O)oc2c1)NCc1ccccc1Cl | > 100 µM (inactive) |
| O=C(CCNS(=O)(=O)c1ccc2ccccc2c1)NCCc1ccc2c(c1)OCO2 | > 100 µM (inactive) |
| COc1ccc(/C=N/NC(=O)c2cc(O)c(O)c(O)c2)c(OC)c1 | > 100 µM (inactive) |
| COc1ccc(CNC(=O)CCNS(=O)(=O)c2ccc3[nH]c(=O)oc3c2)c(OC)c1 | > 100 µM (inactive) |
| COc1ccc(/C=N/NC(=O)c2cc(O)c(O)c(O)c2)cc1OC | > 100 µM (inactive) |
| O=C(CCNS(=O)(=O)c1ccc2[nH]c(=O)oc2c1)Nc1ccc2c(c1)OCO2 | > 100 µM (inactive) |
| O=C(CCNS(=O)(=O)c1ccc2[nH]c(=O)oc2c1)NCc1ccc(Cl)cc1 | > 100 µM (inactive) |
| O=C(CCNS(=O)(=O)c1ccc2[nH]c(=O)oc2c1)NCc1cccc(C(F)(F)F)c1 | > 100 µM (inactive) |
| CC(C)c1ccc(/C=N/NC(=O)c2cc(O)c(O)c(O)c2)cc1 | > 100 µM (inactive) |
| O=C(N/N=C/c1c(F)cccc1Cl)c1cc(O)c(O)c(O)c1 | > 100 µM (inactive) |
| C/C(=N\NC(=O)c1cc(O)c(O)c(O)c1)c1ccc(O)cc1O | > 100 µM (inactive) |
| COc1cccc(CNC(=O)CCNS(=O)(=O)c2ccc3[nH]c(=O)oc3c2)c1 | > 100 µM (inactive) |

| Structure (SMILES) | IC50 |
| --- | --- |
| COc1ccc(CNC(=O)CNS(=O)(=O)c2ccc3[nH]c(=O)oc3c2)cc1 | > 100 µM (inactive) |
| COc1ccc(CNC(=O)CNS(=O)(=O)c2ccc3[nH]c(=O)oc3c2)c(OC)c1 | > 100 µM (inactive) |
| O=C(N/N=C/c1ccccc1Cl)c1cc(O)c(O)c(O)c1 | > 100 µM (inactive) |
| Cc1ccc(C)c(NC(=O)CCNS(=O)(=O)c2ccc3c(c2)CCC3)c1 | > 100 µM (inactive) |
| COc1ccc(CNC(=O)CCNS(=O)(=O)c2ccc3[nH]c(=O)oc3c2)cc1 | > 100 µM (inactive) |
| O=c1[nH]c2ccc(S(=O)(=O)NCCc3ccc4c(c3)OCO4)cc2o1 | > 100 µM (inactive) |
| O=C(NCc1ccc2c(c1)OCO2)C1CCCN(S(=O)(=O)c2ccc3[nH]c(=O)oc3c2)C1 (stereo not given) | > 100 µM (inactive) |
| COc1ccc(NC(=O)CCCNS(=O)(=O)c2ccc3[nH]c(=O)oc3c2)cc1OC | > 100 µM (inactive) |
| CCOc1cc(C(=O)N/N=C/c2c(F)cccc2Cl)cc(OCC)c1OCC | > 100 µM (inactive) |
| CN(C)c1ccc(CNC(=O)C2CCCN(S(=O)(=O)c3ccc4[nH]c(=O)oc4c3)C2)cc1 (stereo not given) | > 100 µM (inactive) |
| O=C(N/N=C/c1c(F)cccc1F)c1ccc(O)cc1 | > 100 µM (inactive) |
| COc1cccc(/C=N/NC(=O)c2cc(O)c(O)c(O)c2)c1O | > 100 µM (inactive) |
| O=c1[nH]c2ccc(S(=O)(=O)Nc3ccc4c(c3)OCO4)cc2o1 | > 100 µM (inactive) |
| O=C(N/N=C/c1ccccc1F)c1ccc(O)cc1 | > 100 µM (inactive) |
| O=C(CNS(=O)(=O)c1ccc2[nH]c(=O)oc2c1)NCCc1ccc2c(c1)OCO2 | > 100 µM (inactive) |
| O=C(N/N=C/c1ccc(Br)cc1F)c1cc(O)ccc1O | > 100 µM (inactive) |
| COc1ccccc1CNC(=O)CCCNS(=O)(=O)c1ccc2[nH]c(=O)oc2c1 | > 100 µM (inactive) |
| COc1ccc(CNC(=O)C2CCCN(S(=O)(=O)c3ccc4[nH]c(=O)oc4c3)C2)cc1 (stereo not given) | > 100 µM (inactive) |
| CC(C)c1ccc(NC(=O)CCNS(=O)(=O)c2ccc3c(c2)oc(=O)n3C)cc1 | > 100 µM (inactive) |
| COc1ccccc1CNC(=O)CCNS(=O)(=O)c1ccc2[nH]c(=O)oc2c1 | > 100 µM (inactive) |
| Cc1ccc(NC(=O)CCNS(=O)(=O)c2ccc3c(c2)oc(=O)n3C)cc1C | > 100 µM (inactive) |
